We go through 27 molecules from patent publication US20120214822A1 (ASTRAZENECA AB, priority 2007, published 2012).

A word on the pIC50: it is the negative decadic logarithm of the IC50, by convention in mol/L. One may read the IC50 as the point on the concentration scale where inhibition reaches its midpoint.

The target in this assay is human active recombinant p38α-6His tagged (Homo sapiens, UniProt Q16539). In words: P38 Alpha Enzyme Assay (AlphaScreen, biotinylated-ATF2 substrate).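 Note: 0.5 nM final p38α, reaction started with ATP and run 45 min at 37 °C, phospho-ATF2 read by antibody-based AlphaScreen, background wells quenched with EDTA before ATP.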 Type of assay: biochemical. As to conditions: p38 alpha enzyme inhibition; means of replicate determinations; 4 h pre-incubation at 37° C.; SD of assay 0.2-0.3 log units. (In Alpha technology, singlet oxygen from a donor bead excites a nearby acceptor bead.)
human active recombinant p38α-6His tagged, sequence (Q16539 whole entry): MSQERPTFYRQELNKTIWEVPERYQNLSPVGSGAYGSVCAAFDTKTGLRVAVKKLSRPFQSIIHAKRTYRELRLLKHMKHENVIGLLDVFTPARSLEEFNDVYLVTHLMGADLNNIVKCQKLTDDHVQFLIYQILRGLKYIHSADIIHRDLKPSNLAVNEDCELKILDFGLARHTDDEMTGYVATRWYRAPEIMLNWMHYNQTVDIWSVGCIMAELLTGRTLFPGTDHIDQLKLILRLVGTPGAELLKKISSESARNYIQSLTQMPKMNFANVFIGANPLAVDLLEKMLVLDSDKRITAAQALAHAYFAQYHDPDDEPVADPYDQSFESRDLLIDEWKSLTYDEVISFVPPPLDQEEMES
As to “4-Methyl-3-[3-[[[4-(4-methyl-1-piperazinyl)phenyl]methyl]amino]-2-oxo-1(2H)-pyrazinyl]-N-(1-methylpropyl)-benzamide [Example 14]”, the pIC50 is reported as 6.
As to `CNCCCOc1ccccc1[C@H]1CCCN1c1nccn(-c2cc(C(=O)NC3CC3)ccc2C)c1=O` (single isomer, unassigned) [Example 325], the IC50 is 1.26 nM.
On the same count and under the same terms, the figure for `CNCCCOc1ccccc1[C@@H]1CCCN1c1nccn(-c2cc(C(=O)NC3CC3)ccc2C)c1=O` (single isomer, unassigned) [Example 326] is 25.1 nM.
For the molecule `Cc1ccc(C(=O)NC2CC2)cc1-n1ccnc(NCc2ccccc2F)c1=O` [Example 1, N-Cyclopropyl-3-[3-(2-fluoro-benzylamino)-2-oxo-2H-pyrazin-1-yl]-4-methyl-benzamide], the negative-log IC50 (pIC50) is 7.4.
Same read-out and setting: as for `Cc1ccc(C(=O)NC2CC2)cc1-n1ccnc(N2CCN(C)CC2)c1=O` [Example 2, N-Cyclopropyl-4-methyl-3-[3-(4-methyl-1-piperazinyl)-2-oxo-1(2H)-pyrazinyl]-benzamide], the figure is 6.4; as for `Cc1ccc(C(=O)NC2CC2)cc1-n1ccnc(NCCCN(C)C)c1=O` [Example 3, N-Cyclopropyl-3-[3-[[3-(dimethylamino)propyl]amino]-2-oxo-1(2H)-pyrazinyl]-4-methyl-benzamide], 6.1; as for `Cc1ccc(C(=O)NC2CC2)cc1-n1ccnc(NCCCN2CCN(C)CC2)c1=O` [Example 4, N-Cyclopropyl-4-methyl-3-[3-[[3-(4-methyl-1-piperazinyl)propyl]amino]-2-oxo-1(2H)-pyrazinyl]-benzamide], 6.1.
The same measure, in the same setting: the figure for `Cc1ccc(C(=O)NC2CC2)cc1-n1ccnc(NCCN(C)C)c1=O` [Example 5, N-Cyclopropyl-3-[3-[[2-(dimethylamino)ethyl]amino]-2-oxo-1(2H)-pyrazinyl]-4-methyl-benzamide] is 5.9.
Take `Cc1ccc(C(=O)NC2CC2)cc1-n1ccnc(NCCCN2CCOCC2)c1=O` [Example 6, N-Cyclopropyl-4-methyl-3-[3-[[3-(4-morpholinyl)propyl]amino]-2-oxo-1(2H)-pyrazinyl]-benzamide]: the pIC50 turned out to be 6.5.
On the same count and under the same terms, the figure for `COCCCNc1nccn(-c2cc(C(=O)NC3CC3)ccc2C)c1=O` [Example 8, N-Cyclopropyl-3-[3-[(3-methoxypropyl)amino]-2-oxo-1(2H)-pyrazinyl]-4-methyl-benzamide] is 6.4; for `Cc1ccc(C(=O)NC2CC2)cc1-n1ccnc(NCCc2ccccn2)c1=O` [Example 9, N-Cyclopropyl-4-methyl-3-[2-oxo-3-[[2-(2-pyridinyl)ethyl]amino]-1(2H)-pyrazinyl]-benzamide] it is 6.3; for `Cc1ccc(C(=O)NC2CC2)cc1-n1ccnc(N[C@@H]2CCc3ccccc32)c1=O` [Example 17, N-Cyclopropyl-3-[3-[[(1R)-2,3-dihydro-1H-inden-1-yl]amino]-2-oxo-1(2H)-pyrazinyl]-4-methyl-benzamide] it is 6.6.
`Cc1ccc(C(=O)NC2CC2)cc1-n1ccnc(NCc2cccc(F)c2)c1=O` [Example 22, N-Cyclopropyl-3-[3-[[(3-fluorophenyl)methyl]amino]-2-oxo-1(2H)-pyrazinyl]-4-methyl-benzamide]: the pIC50 is 7.
As to `Cc1ccc(C(=O)NC2CC2)cc1-n1ccnc(NCc2ccccn2)c1=O` [Example 23, N-Cyclopropyl-4-methyl-3-[2-oxo-3-[(2-pyridinylmethyl)amino]-1(2H)-pyrazinyl]-benzamide], the pIC50 stood at 6.9.
Turning to `Cc1ccc(C(=O)NC2CC2)cc1-n1ccnc(NCc2cccnc2)c1=O` [Example 24, N-Cyclopropyl-4-methyl-3-[2-oxo-3-[(3-pyridinylmethyl)amino]-1(2H)-pyrazinyl]-benzamide], the pIC50 came out at 6.3.
As to `Cc1ccc(C(=O)NC2CC2)cc1-n1ccnc(NCc2ccc(S(C)(=O)=O)cc2)c1=O` [Example 25, N-Cyclopropyl-4-methyl-3-[3-[[[4-(methylsulfonyl)phenyl]methyl]amino]-2-oxo-1(2H)-pyrazinyl]-benzamide], the pIC50 stood at 5.5.
The same measure, in the same setting: as for `Cc1ccc(C(=O)NC2CC2)cc1-n1ccnc(NCc2nc3ccccc3[nH]2)c1=O` [Example 27, 3-[3-[(1H-Benzimidazol-2-ylmethyl)amino]-2-oxo-1(2H)-pyrazinyl]-N-cyclopropyl-4-methyl-benzamide], the figure is 6.4; as for `Cc1ccc(C(=O)NC2CC2)cc1-n1ccnc(NCc2cnc3ccccc3c2)c1=O` [Example 28, N-Cyclopropyl-4-methyl-3-[2-oxo-3-[(3-quinolinylmethyl)amino]-1(2H)-pyrazinyl]-benzamide], 6.2; as for `Cc1ccc(C(=O)NC2CC2)cc1-n1ccnc(NCC2CNc3ccccc3C2)c1=O` (stereo not drawn) [Example 29, N-Cyclopropyl-4-methyl-3-[2-oxo-3-[[(1,2,3,4-tetrahydro-3-quinolinyl)methyl]amino]-1(2H)-pyrazinyl]-benzamide], 7.
As to `Cc1ccc(C(=O)NC2CC2)cc1-n1ccnc(N2CCc3ccccc3C2)c1=O` [Example 30, N-Cyclopropyl-3-[3-(3,4-dihydro-2(1H)-isoquinolinyl)-2-oxo-1(2H)-pyrazinyl]-4-methyl-benzamide], the concentration for half-maximal inhibition (IC50) is 126 nM.
With `Cc1ccc(C(=O)NC2CC2)cc1-n1ccnc(NCc2cccs2)c1=O` [Example 31, N-Cyclopropyl-4-methyl-3-[2-oxo-3-[(2-thienylmethyl)amino]-1(2H)-pyrazinyl]-benzamide], the pIC50 turned out to be 7.
As to `Cc1ccc(C(=O)NC2CC2)cc1-n1ccnc(NCc2ccc3c(c2)OCO3)c1=O` [Example 32, 3-[3-[(1,3-Benzodioxol-5-ylmethyl)amino]-2-oxo-1(2H)-pyrazinyl]-N-cyclopropyl-4-methyl-benzamide], the pIC50 was found to be 6.8.
Turning to `Cc1ccc(C(=O)NC2CC2)cc1-n1ccnc(NCc2ccc(F)cc2)c1=O` [Example 33, N-Cyclopropyl-3-[3-[[(4-fluorophenyl)methyl]amino]-2-oxo-1(2H)-pyrazinyl]-4-methyl-benzamide], the pIC50 turned out to be 7.5.
The same measure, in the same setting: the figure for `Cc1ccc(C(=O)NC2CC2)cc1-n1ccnc(NC(CN2CCCC2)c2ccccc2)c1=O` (stereo not drawn) [Example 34, N-Cyclopropyl-4-methyl-3-[2-oxo-3-[[1-phenyl-2-(1-pyrrolidinyl)ethyl]amino]-1(2H)-pyrazinyl]-benzamide] is 6.4.
Regarding `Cc1ccc(C(=O)NC2CC2)cc1-n1ccnc(NCC2(c3ccccc3)CCN(C)CC2)c1=O` [Example 35, N-Cyclopropyl-4-methyl-3-[3-[[(1-methyl-4-phenyl-4-piperidinyl)methyl]amino]-2-oxo-1(2H)-pyrazinyl]-benzamide], the IC50 is 251 nM.
On to `Cc1ccc(C(=O)NC2CC2)cc1-n1ccnc(NCCCc2ccccc2)c1=O` [Example 36, N-Cyclopropyl-4-methyl-3-[2-oxo-3-[(3-phenylpropyl)amino]-1(2H)-pyrazinyl]-benzamide], for which the negative-log IC50 (pIC50) was 6.8.
The same measure, in the same setting: the figure for `Cc1ccc(C(=O)NC2CC2)cc1-n1ccnc(NCc2ccc(C(C)(C)C)cc2)c1=O` [Example 37, N-Cyclopropyl-3-[3-[[[4-(1,1-dimethylethyl)phenyl]methyl]amino]-2-oxo-1(2H)-pyrazinyl]-4-methyl-benzamide] is 6.1.
